# Reference: paper doi:10.1101/2020.08.04.236984v1 (bioRxiv, 2020)
# Assays:
# SKBR-3 cells [1] = assay: Flow cytometric measurement of penetratin uptake and endo-lysosomal release; type: cell-based; details: atorvastatin 100 nM and 10 μM, 72 h pre-treatment, versus control
# MDA-MB-231 cells = assay: Membrane fluidity, fluorescence anisotropy of TMA-DPH; type: cell-based; details: atorvastatin 72 h
# SKBR-3 cells [2] = assay: Membrane compactness, generalized polarization of Laurdan; type: cell-based; details: atorvastatin 72 h, 2 μM Laurdan
# [3] = tested on: HMG-CoA reductase expression in SKBR-3 cells; details: atorvastatin at a micromolar concentration, ref [57]; cited from earlier work
# [4] = tested on: HMG-CoA reductase expression in MDA-MD-231 cells; details: atorvastatin at a micromolar concentration, ref [57]; cited from earlier work
smiles,measurement,setting,value
CC(C)c1c(C(=O)Nc2ccccc2)c(-c2ccccc2)c(-c2ccc(F)cc2)n1CC[C@@H](O)C[C@@H](O)CC(=O)O [atorvastatin],amount of penetratin leaving the endo-lysosomal compartment,SKBR-3 cells [1],significantly higher
same,effect on membrane microviscosity (TMA-DPH anisotropy),MDA-MB-231 cells,unexpected increase
same,effect on membrane compactness (generalized polarization of Laurdan),SKBR-3 cells [2],decrease
same,induction of HMG-CoA reductase expression,[3],4 fold
same,change in HMG-CoA reductase enzyme expression,[4],no change
